Patent US9943540B2, “Pharmaceutical formulation for the treatment of osteoarthritis containing clodronic acid and hyaluronic acid” (ABIOGEN PHARMA S.P.A., priority 2005, dated 2018)
Entries after “also recorded” stand apart in the source; their conditions may differ.

Columns and labels:
gonarthritis [1] = test: Preliminary clinical trial of intra-articular infiltration, responders by Womac 20 and Womac 50; assay type: in vivo, patients; conditions: for Womac 20 (responders, 20% improvement in the symptoms) / Womac 50 (responders, 50% improvement in the symptoms): patients with gonarthritis, % of patients
Procedure: Preliminary clinical trials with the formulations according to the invention were based on the measurement of Womac 20 and Womac 50, ie. a 20% and 50% improvement in the symptoms to establish the responders to the treatment (Ann Rheum Dis. 2005). Recently, to assess the effectiveness of intra-articular clodronic acid, 1 mg of clodronic acid is administered in patients with gonarthritis obtaining an improvement in symptoms which, when evaluated with Womac 50, related to 32% of the patients. 15 patients suffering from gonarthritis received, according to the invention, an infiltration of 2 ml of solution constituted by 20 mg of hyaluronic acid (Hyalgan) together with 1 mg of clodronic acid once a week for 3 weeks. At the end of the infiltration cycle, as reassumed in the following table, 58% of the patients were responders according to Womac 20, and 37% were responders according to Womac 50. […] The final result of 3 weekly infiltrations of the combination of the two drugs was also better than the cycle with 5 weekly infiltrations of hyaluronic acid (Womac 20:51% and Womac 50:30%) or clodronic acid (Womac 20:54% and Womac 50:32%).

gonarthritis [2] = test: Clinical trial of intra-articular sodium clodronate in evident gonarthritis; assay type: in vivo, patients
Description: (§1) The low pH used was dictated by stability problems, +which made less acid values of the solutions unacceptable.

[3] = system: gonalgia and gonarthrosis; test: Multicenter clinical study of intra-articular clodronate; assay type: in vivo, patients; conditions: 2 mg once a week over 4 consecutive weeks
Description: as §1

[4] = system: damaging effects on the joint structures by Freund's adjuvant; test: Study on rats: damage to joint structures by Freund's adjuvant; assay type: in vivo
[5] = system: synovitis secondary to knee osteoarthritis; conditions: patients with synovitis secondary to knee osteoarthritis; cited from earlier work
[6] = 2 ml intra-articular infiltration once a week for 3 weeks
[7] = 2 ml intra-articular infiltration once a week for 5 weeks

Row | Compound | improvement in symptoms evaluated with Womac 50 (gonarthritis [1]; 1 mg clodronic acid intra-articular in patients with gonarthritis, regimen not stated, % of the patients) [%] | Womac 20 (responders, 20% improvement in the symptoms) (gonarthritis [1]; [6]) [%] | Womac 50 (responders, 50% improvement in the symptoms) (gonarthritis [1]; [6]) [%] | Womac 20 (responders, 20% improvement in the symptoms) (gonarthritis [1]; [7]) [%] | Womac 50 (responders, 50% improvement in the symptoms) (gonarthritis [1]; [7]) [%] | attenuation of pain and recovery of joint movement (gonarthritis [2]; after 5 intra-articular injections of 2 mg) | adverse events: pain response at the time of the injection (gonarthritis [2]; clodronate alone intra-articularly, acidic solution, observed in the trials of b9 and b10) | response to intra-articular administration [3] | inhibition of damaging effects on the joint structures by Freund's adjuvant [4] | patient's symptomatology [5]
1 | O=P(O)(O)C(Cl)(Cl)P(=O)(O)O [Clodronic acid, clodronic acid] | 32 | 43 | 27 | 54 | 32 |  |  |  |  | 
2 | O=P(O)(O)C(Cl)(Cl)P(=O)(O)O [sodium clodronate] |  |  |  |  |  | interesting results were observed | some adverse events were also observed; also recorded: normally occurs | best responses | able to inhibit damaging effects on the joint structures | significant improvement
3 | sodium hyaluronate |  | 41 | 24 | 51 | 30 |  |  |  |  | 
